According to ChEMBL document CHEMBL1131921, “Diamino benzo[b]thiophene derivatives as a novel class of active site directed thrombin inhibitors: 3. Enhancing activity by imposing conformational restriction in the C-4" side chain” (Bioorg Med Chem Lett, 1999):

Target: Prothrombin (Homo sapiens) (UniProt P00734)
Assay: Binding affinity for human Prothrombin as apparent association constant (Kass)

Row | K ass | Compound
1 | 7.34e+06 l M-1 | CC(COc1ccc(Cc2c(-c3ccc(OCCN4CCCC4)cc3)sc3ccccc23)cc1)N1CCCC1 (configuration not stated)
2 | 9.8e+06 l M-1 | C(=C\c1ccc(Cc2c(-c3ccc(OCCN4CCCC4)cc3)sc3ccccc23)cc1)/CN1CCCC1 (stereo in doubt; cis)
3 | 4.84e+06 l M-1 | C(#Cc1ccc(Cc2c(-c3ccc(OCCN4CCCC4)cc3)sc3ccccc23)cc1)CN1CCCC1
4 | 1.32e+07 l M-1 | C(=C\c1ccc(Cc2c(-c3ccc(OCCN4CCCC4)cc3)sc3ccccc23)cc1)/CN1CCCC1 (stereo in doubt; trans)
5 | 9.07e+06 l M-1 | C[C@@H](COc1ccc(Cc2c(-c3ccc(OCCN4CCCC4)cc3)sc3ccccc23)cc1)N1CCCC1
6 | 2.81e+07 l M-1 | CCC(COc1ccc(Cc2c(-c3ccc(OCCN4CCCC4)cc3)sc3ccccc23)cc1)N1CCCC1 (configuration not stated)
7 | 4.69e+06 l M-1 | CC(C)(COc1ccc(Cc2c(-c3ccc(OCCN4CCCC4)cc3)sc3ccccc23)cc1)N1CCCC1
8 | 1.23e+07 l M-1 | CCC(CN1CCCC1)Oc1ccc(Cc2c(-c3ccc(OCCN4CCCC4)cc3)sc3ccccc23)cc1 (configuration not stated)
9 | 4.17e+06 l M-1 | C[C@H](COc1ccc(Cc2c(-c3ccc(OCCN4CCCC4)cc3)sc3ccccc23)cc1)N1CCCC1
10 | 2.74e+07 l M-1 | c1ccc2c(Cc3ccc(O[C@@H]4CCC[C@H]4N4CCCC4)cc3)c(-c3ccc(OCCN4CCCC4)cc3)sc2c1
11 | 2.4e+07 l M-1 | c1ccc2c(Cc3ccc(O[C@@H]4CCCC[C@H]4N4CCCC4)cc3)c(-c3ccc(OCCN4CCCC4)cc3)sc2c1
12 | 6.7e+06 l M-1 | c1ccc2c(Cc3ccc(CCCN4CCCC4)cc3)c(-c3ccc(OCCN4CCCC4)cc3)sc2c1
